Values quoted from earlier work as cited in PubChem BioAssay AID1259409 (Chemical Carcinogenesis Research Information System (CCRIS), 2018).
Several values for one entry are separate records, joined by “and”; a condition that tells them apart may be missing. Identical values can stand only once.

Tested on: rodent chemically induced tumor inhibition, incidence and multiplicity
Test: CCRIS tumor inhibitor studies
Settings: Promoter: NONE USED

In the case of `S=C=NCCCc1ccccc1`, the “tumour outcome (control, treated, inhibition, significance)” value (Carcinogen: 4-(METHYLNITROSAMINO)-1-(3-PYRIDYL)-1-BUTANONE, 64091-91-4, Dose [Inhibitor]: 0, 0.2 UMOL 1/D FOR 4 D ADMINISTERED PRIOR TO CARCINOGEN TREATMENT (STUDY DURATION: 116 D), Route [Inhibitor]: GAVAGE, Species: MOUSE, Strain/Sex: STRAIN A, Target Tissue: Type of Lesion: LUNG: ADENOMA, Dose [Carcinogen]: 10 UMOL ONCE 2 HR AFTER FINAL DOSE OF INHIBITOR) is given as 100%, 90%, 10%, not significant, the “tumour outcome (control, treated, inhibition, significance)” value (Carcinogen: 4-(METHYLNITROSAMINO)-1-(3-PYRIDYL)-1-BUTANONE, 64091-91-4, Dose [Inhibitor]: 0, 1 UMOL 1/D FOR 4 D ADMINISTERED PRIOR TO CARCINOGEN TREATMENT (STUDY DURATION: 116 D), Route [Inhibitor]: GAVAGE, Species: MOUSE, Strain/Sex: STRAIN A, Target Tissue: Type of Lesion: LUNG: ADENOMA, Dose [Carcinogen]: 10 UMOL ONCE 2 HR AFTER FINAL DOSE OF INHIBITOR) is given as 100%, 75%, 25%, not significant and the “tumour outcome (control, treated, inhibition, significance)” value (Carcinogen: 4-(METHYLNITROSAMINO)-1-(3-PYRIDYL)-1-BUTANONE, 64091-91-4, Dose [Inhibitor]: 0, 5 UMOL 1/D FOR 4 D ADMINISTERED PRIOR TO CARCINOGEN DOSE (STUDY DURATION: 116 D), Route [Inhibitor]: GAVAGE, Species: MOUSE, Strain/Sex: STRAIN-A, Target Tissue: Type of Lesion: LUNG: ADENOMA, Dose [Carcinogen]: 10 UMOL IN SALINE ADMINISTERED 2 HR POST LAST AGENT DOSE) is given as 100%, 37%, 63%, p<0.001. The “tumour outcome (control, treated, inhibition, significance)” value (Carcinogen: 4-(N-NITROSOMETHYLAMINO)-1-(3-PYRIDYL)-1-BUTANONE, 64091-91-4, Dose [Inhibitor]: 0, 5 UMOL/D FOR 4 CONSECUTIVE DAYS (STUDY DURATION: 16.5 WK), Route [Inhibitor]: GAVAGE, Species: MOUSE, Strain/Sex: STRAIN-A/FEMALE, Target Tissue: Type of Lesion: LUNG: ADENOMA, Dose [Carcinogen]: 10 UMOL ONCE 2 HR POST LAST AGENT DOSE) was 100%, 37%, 63%, not calculated, the “tumour outcome (control, treated, inhibition, significance)” value (Carcinogen: 4-METHYLNITROSAMINO-1-(3-PYRIDYL)-1-BUTANONE,64091-91-4, Dose [Inhibitor]: 0, 5 UMOL 1/D FOR 4 D ADMINISTERED PRIOR TO CARCINOGEN TREATMENT (STUDY DURATION 116 D), Route [Inhibitor]: GAVAGE, Species: MOUSE, Strain/Sex: STRAIN A, Target Tissue: Type of Lesion: LUNG: ADENOMA, Dose [Carcinogen]: 10 UMOL ONCE 2 HR AFTER FINAL DOSE OF INHIBITOR) was 100%, 11%, 89%, p<0.05 and the “tumour outcome (control, treated, inhibition, significance)” value (Carcinogen: N-NITROSOMETHYLBENZYLAMINE, 937-40-6, Dose [Inhibitor]: 0, 0.4 UMOL/G IN DIET FOR 25 WK BEGINNING 2 WK PRIOR TO CARCINOGEN TREATMENT (STUDY DURATION: 25 WK), Route [Inhibitor]: ORAL, Species: RAT, Strain/Sex: F344/MALE, Target Tissue: Type of Lesion: ESOPHAGUS: TUMOR, Dose [Carcinogen]: 0.5 MG/KG BW IN 20% DMSO 1/WK FOR 15 WK) was 100%, 7%, 93%, p<0.05. For the same compound, the “tumour outcome (control, treated, inhibition, significance)” value (Carcinogen: N-NITROSOMETHYLBENZYLAMINE, 937-40-6, Dose [Inhibitor]: 0, 1 UMOL/G IN DIET FOR 25 WK BEGINNING 2 WK PRIOR TO CARCINOGEN TREATMENT (STUDY DURATION: 25 WK), Route [Inhibitor]: ORAL, Species: RAT, Strain/Sex: F344/MALE, Target Tissue: Type of Lesion: ESOPHAGUS: TUMOR, Dose [Carcinogen]: 0.5 MG/KG BW IN 20% DMSO 1/WK FOR 15 WK) was 100%, 7%, 93%, p<0.05 and the “tumour outcome (control, treated, inhibition, significance)” value (Carcinogen: N-NITROSOMETHYLBENZYLAMINE, 937-40-6, Dose [Inhibitor]: 0, 2.5 UMOL/G IN DIET FOR 25 WK BEGINNING 2 WK PRIOR TO CARCINOGEN TREATMENT (STUDY DURATION: 25 WK), Route [Inhibitor]: ORAL, Species: RAT, Strain/Sex: F344/MALE, Target Tissue: Type of Lesion: ESOPHAGUS: TUMOR, Dose [Carcinogen]: 0.5 MG/KG BW IN 20% DMSO 1/WK FOR 15 WK) was 100%, 0%, 100%, p<0.05.

For `NCC[Se][Se]CCN`, the “tumour outcome (control, treated, inhibition, significance)” value (Carcinogen: 7,12-DIMETHYLBENZ[A]ANTHRACENE, 57-97-6, Dose [Inhibitor]: 0, 0.000025 MOL/KG DIET BEGINNING 2 WK PRIOR TO CARCINOGEN AND CONTINUED FOR STUDY DURATION (STUDY DURATION: 25 WK), Route [Inhibitor]: ORAL, Species: RAT, Strain/Sex: CD-1/FEMALE, Target Tissue: Type of Lesion: MAMMARY GLAND: ADENOCARCINOMA, Dose [Carcinogen]: 10 MG ONCE) is given as 18/25 (72%), 14/25 (56%), 22%, not significant and the “tumour outcome (control, treated, inhibition, significance)” value (Carcinogen: 7,12-DIMETHYLBENZ[A]ANTHRACENE, 57-97-6, Dose [Inhibitor]: 0, 0.00004 MOL/KG DIET BEGINNING 2 WK PRIOR TO CARCINOGEN AND CONTINUED FOR STUDY DURATION (STUDY DURATION: 25 WK), Route [Inhibitor]: ORAL, Species: RAT, Strain/Sex: CD-1/FEMALE, Target Tissue: Type of Lesion: MAMMARY GLAND: ADENOCARCINOMA, Dose [Carcinogen]: 10 MG ONCE) is given as 18/25 (72%), 11/25 (44%), 39%, p<0.05.

For `COc1ccc(O)c(C(C)(C)C)c1`, the “tumour outcome (control, treated, inhibition, significance)” value (Carcinogen: BENZO[A]PYENE, 50-32-8, Dose [Inhibitor]: 0.28 MMOL/G DIET DAILY FOR 6 WK STARTING 14 D PRIOR TO THE FIRST UNTIL 1 D AFTER LAST CARCINOGEN DOSE FOLLOWED BY AN OBS, Route [Inhibitor]: ORAL, Species: MOUSE, Strain/Sex: STRAIN-A/FEMALE, Target Tissue: Type of Lesion: LUNG: ADENOMA, Dose [Carcinogen]: 3 MG IN 0.2 ML COTTONSEED OIL GIVEN 3X AT 2 WK INTERVALS) is listed as 100%, 100%, 0%, not significant and the “tumour outcome (control, treated, inhibition, significance)” value (Carcinogen: BENZO[A]PYRENE, 50-32-8, Dose [Inhibitor]: 0.03 MMOL/G OF DIET DAILY STARTING 7 D BEFORE AND CONTINUING THROUGH 3 D AFTER CARCINOGEN TREATMENT FOLLOWED BY OBSERVAT, Route [Inhibitor]: ORAL, Species: MOUSE, Strain/Sex: ICR/FEMALE, Target Tissue: Type of Lesion: FORESTOMACH: NEOPLASM, Dose [Carcinogen]: 1 MG IN 0.2 ML CORN OIL 2/WK FOR 4 WK) is listed as 90%, 79%, 12%, not significant and 94%, 79%, 16%, not significant.
